{
  "source": "ChEMBL document CHEMBL1140126",
  "about": "“Optimizing natural products by biosynthetic engineering: discovery of nonquinone Hsp90 inhibitors” (J Med Chem, 2008)",
  "key": {"Mus musculus [1]": {"system": "Mus musculus", "experiment": "Toxicity in nude mouse xenografted with human MAXF401 cells assessed as median body weight loss at 85 mg/kg/day, ip", "format": "organism-based", "design": "route intraperitoneal", "details": "in vivo"}, "[2]": {"experiment": "Antitumor activity against human MAXF401 cells xenografted in nude mouse assessed as inhibition of tumor growth at 42.5 mg/kg/day, ip administered alternately for 5 days with 3 days intervals assessed on day 21", "format": "functional", "details": "route intraperitoneal"}, "Mus musculus [3]": {"system": "Mus musculus", "experiment": "Toxicity in NMRI nu/nu mouse assessed as body weight loss at 250 mg/kg/day for 5 days", "format": "organism-based", "details": "in vivo, 120 h"}, "[4]": {"experiment": "Toxicity in NMRI nu/nu mouse assessed as maximum tolerated dose", "format": "organism-based", "details": "in vivo"}, "[5]": {"experiment": "Antitumor activity against human MAXF401 cells xenografted in nude mouse assessed as inhibition of tumor growth at 50 mg/kg/day, ip administered alternately for 5 days with 3 days intervals assessed on day 28", "format": "functional", "details": "route intraperitoneal"}, "[6]": {"experiment": "Antitumor activity against human MAXF401 cells xenografted in nude mouse assessed as inhibition of tumor growth at 85 mg/kg/day, ip administered alternately for 5 days with 3 days intervals assessed on day 35", "format": "functional", "details": "route intraperitoneal"}, "Mus musculus [7]": {"system": "Mus musculus", "experiment": "Toxicity in nude mouse xenografted with human MAXF401 cells assessed as median body weight loss on day 21 at 50 mg/kg/day, ip", "format": "organism-based", "design": "route intraperitoneal", "details": "in vivo"}, "[8]": {"experiment": "Solubility at room temperature after 6 hrs by HPLC", "format": "physicochemical"}, "[9]": {"experiment": "Binding affinity to yeast HSP90", "design": "species or system Saccharomyces cerevisiae"}},
  "data": [
    {"smiles": "CO[C@H]1C[C@H](C)Cc2cc(O)cc(c2)NC(=O)/C(C)=C/CC[C@H](C)[C@@H](OC(N)=O)/C(C)=C/[C@H](C)[C@H]1O", "values": [
      {"measurement": "Activity", "setting": "Mus musculus [1]", "value": 3.2, "unit": "%"},
      {"measurement": "T/C", "setting": "[2]", "value": 53.9, "unit": "%"},
      {"measurement": "Activity", "setting": "Mus musculus [3]", "value": 3.8, "unit": "%"},
      {"measurement": "MTD", "setting": "[4]", "value": "≥ 250", "unit": "mg/kg"},
      {"measurement": "T/C", "setting": "[5]", "value": 35.6, "unit": "%"},
      {"measurement": "T/C", "setting": "[6]", "value": 45.3, "unit": "%"},
      {"measurement": "Activity", "setting": "Mus musculus [7]", "value": 4.4, "unit": "%"},
      {"measurement": "solubility at 6 h", "setting": "[8]", "value": "> 200", "unit": "µM"}
    ]},
    {"smiles": "CO[C@H]1C[C@H](C)[C@@H](O)c2cc(O)cc(c2)NC(=O)/C(C)=C/CC[C@H](C)[C@@H](OC(N)=O)/C(C)=C/[C@H](C)[C@H]1O", "values": [
      {"measurement": "Kd", "setting": "[9]", "value": 6, "unit": "nM"}
    ]},
    {"smiles": "CO[C@H]1[C@@H](OC)C[C@H](C)[C@@H](OC)C2=CC(=O)C=C(NC(=O)/C(C)=C/C=C\\[C@H](C)[C@@H](OC(N)=O)/C(C)=C/[C@@H]1C)C2=O", "note": "[MACBECIN]", "values": [
      {"measurement": "solubility at 6 h", "setting": "[8]", "value": 81, "unit": "µM"}
    ]},
    {"smiles": "C=CCNC1=C2C[C@@H](C)C[C@H](OC)[C@H](O)[C@@H](C)/C=C(\\C)[C@H](OC(N)=O)[C@@H](OC)/C=C\\C=C(/C)C(=O)NC(=CC1=O)C2=O", "note": "[TANESPIMYCIN]", "values": [
      {"measurement": "MTD", "setting": "[4]", "value": 50, "unit": "mg/kg"}
    ]}
  ]
}
